Results on 2 compounds are retold here after PMC12339982 (Nature Communications, 2025).

One assay addresses T1, TauT L306A mutant (Homo sapiens, UniProt P31641, L306A).
T1 sequence (P31641 1-620 L306A): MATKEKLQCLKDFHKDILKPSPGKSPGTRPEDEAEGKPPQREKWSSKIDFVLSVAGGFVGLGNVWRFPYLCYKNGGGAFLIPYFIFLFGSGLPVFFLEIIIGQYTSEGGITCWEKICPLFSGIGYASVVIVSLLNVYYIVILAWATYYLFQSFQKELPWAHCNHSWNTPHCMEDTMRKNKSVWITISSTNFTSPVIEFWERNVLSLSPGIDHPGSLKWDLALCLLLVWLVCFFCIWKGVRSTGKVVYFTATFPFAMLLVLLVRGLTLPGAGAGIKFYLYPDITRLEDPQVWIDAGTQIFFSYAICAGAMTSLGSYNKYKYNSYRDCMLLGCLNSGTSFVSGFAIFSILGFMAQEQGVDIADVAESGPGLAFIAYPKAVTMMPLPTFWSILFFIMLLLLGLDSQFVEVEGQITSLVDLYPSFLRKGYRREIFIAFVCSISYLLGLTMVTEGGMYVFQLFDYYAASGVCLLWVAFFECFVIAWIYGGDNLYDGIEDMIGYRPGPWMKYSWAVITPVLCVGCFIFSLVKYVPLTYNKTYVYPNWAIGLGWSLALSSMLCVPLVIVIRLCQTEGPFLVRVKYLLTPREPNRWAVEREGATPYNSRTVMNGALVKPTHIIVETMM
In words: MST binding, TauT L306A. Particulars: mean ± s.e.m., n=3.

Assay [1] has as its target T2, TauT^WT and variants (Homo sapiens, UniProt P31641, L134C).
T2 sequence (P31641 1-620 L134C): T1 sequence (P31641 1-620 L306A) with L134C, A306L
In words: GAA uptake assay. It counts as cell-based. Particulars: mutation Leu134Cys.

The test system of assay [2] is TauT^WT and variants. Put plainly: GAA uptake assay. In kind it is cell-based, human. Particulars: amino acid substitutions in Gly57, Phe58, Leu306.
Another assay has as its target T3, TauT F58A mutant (Homo sapiens, UniProt P31641, F58A).
T3 sequence (P31641 1-620 F58A): T1 sequence (P31641 1-620 L306A) with F58A, A306L
Put plainly: MST binding, TauT F58A. Particulars: mean ± s.e.m., n=3.

Another assay has as its target T4, TauT S402A mutant (Homo sapiens, UniProt P31641, S402A).
T4 sequence (P31641 1-620 S402A): T1 sequence (P31641 1-620 L306A) with A306L, S402A
In words: MST binding, TauT S402A. The conditions noted are these: mean ± s.e.m., n=3.

Molecules are shown by their SMILES. Substitutions are numbered along the chain they refer to.

As for `[H]/N=C(/N)NCC(=O)O` [GAA, guanidinoacetate], at TauT L306A mutant, the “Kd (MST)” value is recorded as “drastic loss of GAA binding affinity”. Also, the “transport activity of GAA” value on TauT^WT and variants [1] is “greater transport activity”. Also, the “transport activity for GAA” value in the assay on TauT^WT and variants [2] is recorded as “decrease in transport activity”.

On to `NCCS(=O)(=O)O` [Taurine, taurine], for which the “Kd (MST)” value at TauT F58A mutant is “reduced the taurine binding to varying extents”; at TauT S402A mutant, “undetectable binding”.
